Data from patent US20210161890A1, “COMPOSITIONS AND METHODS FOR TREATING BRAIN DYSFUNCTION” (BACH PHARMA, INC., priority 2015, published 2021).
Where a name gives a salt, the structure may show the parent alone. Read-outs that look alike come from different tables or passages of the source.

How the values were obtained:
GWI rats [1] = test system: GWI rats
Method: Time-line of various procedures for animals in cohorts 1 and 2: Animals were exposed daily to GWIR-chemicals and stress for 28 days, and were subjected to a survival period of 4 months between exposure and treatment. The animals were then treated 5 times a week with 5-amino-2,3-dihydro-1,4-phthalazinedione or VEH for 8 weeks. […] The animals are then subjected to cognitive and mood function tests starting from the fifth week of treatment. Finally, euthanasia and tissue harvesting was performed after 8 weeks of treatment.
(§1) Exposure of animals to GWIR-chemicals and stress: Animals were exposed daily to the following chemicals for 28 days: pyridostigmine bromide (PB) at 2 mg/kg/day (via oral gavage), DEET at 60 mg/kg/day (via dermal application) and permethrin at 0.2 mg/kg/day (via dermal application). In addition, animals were subjected daily to 15 minutes of restraint stress using rat restrainers during the above 28-day period.
(§2) Survival period between exposure and treatment: Following the exposure to GMIR chemicals and stress, animals were maintained in the vivarium for four months in regular cages (two per cage) with ad libitum access to food and water. Administration of 5-amino-2,3-dihydro-1,4-phthalazinedione or VEH: Treatment was given for 8 weeks (5 times/week) via oral gavage, commencing in the 5th month after exposure to GMIR chemicals and stress. The doses of 5-amino-2,3-dihydro-1,4-phthalazinedione employed were 40 mg/kg, 80 mg/kg and 160 mg/kg.
(§3) Behavioral tests for assessing cognitive and mood function: We examined animals in all groups through stress-free behavioral tests. We used a Pattern Separation Test (PST) to assess cognitive function and a Sucrose Preference Test (SPT) to assess mood function.
This test comprised four days of monitoring. On day 1, rats were housed individually and given free access to two identical bottles containing 1% sucrose solution. Rats were trained to adapt to sucrose solution for 24 hours. On day 2, one bottle was replaced with a new bottle containing regular water for 24 hours. On day 3, rats were deprived of water and food for 23 hours, and then on day 4, rats were given free access to two bottles: one containing 100 ml of sucrose solution and another containing 100 ml of regular vyater. An hour later, the consumed volume in both bottles was recorded.

GWI rats [2] = details: for pattern separation ability (exploration of novel vs familiar object on P2): GWI rats
Method: The animals were then treated 5 times a week with 5-amino-2,3-dihydro-1,4-phthalazinedione or VEH for 8 weeks. […] The animals are then subjected to cognitive and mood function tests starting from the fifth week of treatment.
(§4) Administration of 5-amino-2,3-dihydro-1,4-phthalazinedione or VEH: Treatment was given for 8 weeks (5 times/week) via oral gavage, commencing in the 5th month after exposure to GMIR chemicals and stress. The doses of 5-amino-2,3-dihydro-1,4-phthalazinedione employed were 40 mg/kg, 80 mg/kg and 160 mg/kg.
as §3
In this test, each rat successively explored two different sets of identical objects (object types 1 and 2) placed on distinct types of floor patterns (Patterns 1 and 2 [P1 and P2]) for 5 minutes each in the two acquisition trials (separated by 30 minutes). Thirty minutes later, in the testing phase (Trial-3), each rat explored an object from trial 2 (which is now a familiar object) and an object from Trial-1 (which is now a novel object) placed on the floor pattern employed in trial 2 (P2).
FIGS. 1B-1F compare percentages of object exploration time spent with the familiar object on pattern 2 (Fa on P2) and the novel object on pattern 2 (NO of P2) in different animal groups (n=11-14/group).

[3] = test system: oxidative stress response and antioxidant genes in the hippocampus of GWI rats
Method: The animals were then treated 5 times a week with 5-amino-2,3-dihydro-1,4-phthalazinedione or VEH for 8 weeks. […] Finally, euthanasia and tissue harvesting was performed after 8 weeks of treatment.
as §4
Analyses of oxidative stress: The hippocampal tissues obtained from animals belonging to cohort 1 were used for the following measurements. First, we analyzed the oxidative stress response and the expression of antioxidant genes using the Rat Oxidative Stress Response PCR Array from Qiagen. We analyzed the expression of 84 key genes involved in oxidative stress response and antioxidant activity in the hippocampus of animals belonging to different groups using quantitative real time PCR (qRT-PCR) to ascertain the effects of 5-amino-2,3-dihydro-1,4-phthalazinedione treatment on oxidative stress.
(i) Expression of oxidative stress response and antioxidant genes: We analyzed the expression of 84 key genes involved in oxidative stress response and antioxidant activity in the hippocampus of animals belonging to different groups using quantitative real time PCR (qRTPCR).

[4] = test system: inflammatory cytokines in hippocampal tissues of GWI rats; details: hippocampal tissue;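 also: relative cytokine levels by 16-cytokine plate array in hippocampus of rats given 28 days of GWI-related chemicals plus restraint stress, treated after a 4-month interval, tissue harvested after 8 weeks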
Method: (§5) Time-line of various procedures for animals in cohorts 1 and 2: Animals were exposed daily to GWIR-chemicals and stress for 28 days, and were subjected to a survival period of 4 months between exposure and treatment. The animals were then treated 5 times a week with 5-amino-2,3-dihydro-1,4-phthalazinedione or VEH for 8 weeks. […] Finally, euthanasia and tissue harvesting was performed after 8 weeks of treatment.
as §1, §2
Analyses of inflammation: The hippocampal tissues obtained from animals belonging to cohort 1 were also used to measure the relative levels of inflammatory cytokines in different groups of animals. We employed the Rat Cytokine Plate Array from Signosis, which facilitated analyses of 16 rat cytokines in a high-throughput manner. The cytokines included: tumor necrosis factor-alpha (TNF-α), interleukin=1 alpha (IL-1α), interleukin-1 beta (IL-1β), vascular endothelial growth factor (VEGF), fibroblast growth factor beta (FGFβ), interferon gamma (IFNγ), interleukin=5 (IL-5), interleukin=6 (IL-6), interleukin=15 (IL-15), leptin, monocyte chemoattractant protein=1 (MCP-1), IFN-gamma-inducible protein 10 (IP-10 or CXCL10), stem cell factor (SCF), Regulated on Activation, Normal T Cell Expressed and Secreted (Rantes), Macrophage inflammatory protein 1 alpha (MIP-1α) and transforming growth factor-beta (TGFβ).
Analyses of inflammation: The hippocampal tissues obtained from animals were used for measurement of the relative levels of inflammatory cytokines in different groups of animals. We employed “The Rat Cytokine Plate Array” from Signosis, which facilitated analyses of 16 rat cytokines in a high-throughput manner. The cytokines included: TNF-α, IL-1α, IL-1β, VEGF, FGFβ, , IFNγ, IL-5, IL-6, IL-15, leptin, MCP-1, IP-10 (or CXCL10), SCF, Rantes, MIP-1α and TGFβ.

GWI rats [5] = details: hippocampal tissue extracts
Method: as §5, §1
Survival period between exposure and treatment: Following the exposure to GMIR chemicals and stress, animals were maintained in the vivarium for four months in regular cages (two per cage) with ad libitum access to food and water. […]
Analyses of oxidative stress: The hippocampal tissues obtained from animals belonging to cohort 1 were used for the following measurements. […] Second, we measured lipid peroxidation through quantification of malondialdehyde. […]

[6] = GWI + MSL 40 mg/Kg, oral gavage 5 times/week for 8 weeks
[7] = column headed GWI + MSL 160 mg/Kg, oral gavage 5 times/week for 8 weeks
[8] = last treatment column, head prints no dose, oral gavage 5 times/week for 8 weeks

Question: Which results are given for `Nc1cccc2c(=O)[nH][nH]c(=O)c12` [MSL, 5-amino-2,3-dihydro-1,4-phthalazinedione, monosodium salt]?
Answer: preference for sucrose-containing water over regular water (GWI rats [1]; 40 mg/kg oral gavage): remained impaired; preference for sucrose-containing water over regular water (GWI rats [1]; 80 mg/kg oral gavage): exhibited a clear preference for drinking sucrose-containing water over regular water; preference for sucrose-containing water over regular water (GWI rats [1]; 160 mg/kg oral gavage): exhibited a clear preference for drinking sucrose-containing water over regular water; total volume (normal water+sucrose-containing water) consumed (GWI rats [1]; all dose groups vs naive and VEH, one-way ANOVA): did not show differences between groups; pattern separation ability (exploration of novel vs familiar object on P2) (GWI rats [2]; 40 mg/kg oral gavage): remained impaired; pattern separation ability (exploration of novel vs familiar object on P2) (GWI rats [2]; 80 mg/kg oral gavage): remained impaired; pattern separation ability (exploration of novel vs familiar object on P2) (GWI rats [2]; 160 mg/kg oral gavage): displayed an ability for pattern separation; total object exploration time between groups in Trial-3 (GWI rats [2]; GWI rats, 40, 80 and 160 mg/Kg groups vs naive and VEH, one-way ANOVA): did not show ditierences between groups; expression of 20 oxidative stress genes increased in GWI rats ([3]; 80 mg/kg): normalized to control levels; expression of 20 oxidative stress genes increased in GWI rats ([3]; 160 mg/kg): normalized to control levels; expression of 4 oxidative stress response genes (Prdx6, Sod2, Sqstm1, Srxn1) ([3]; vs GWI rats receiving VEH): completely normalized; FGF-beta Mean ± S.E.M. [4, 6]: 0.17 ± 0.05; IFN-gamma Mean ± S.E.M. [4, 6]: 0.19 ± 0.05; IL-1alpha Mean ± S.E.M. [4, 6]: 0.17 ± 0.05; IL-1 beta Mean ± S.E.M. [4, 6]: 0.38 ± 0.05; IL-5 Mean ± S.E.M. [4, 6]: 0.19 ± 0.05; IL-6 Mean ± S.E.M. [4, 6]: 0.23 ± 0.05; IL-10 Mean ± S.E.M. [4, 6]: 0.085 ± 0.02; IL-15 Mean ± S.E.M. [4, 6]: 0.13 ± 0.05; LEPTIN Mean ± S.E.M. [4, 6]: 0.40 ± 0.05; MCP-1 Mean ± S.E.M. [4, 6]: 0.09 ± 0.05; MIP-1 alpha Mean ± S.E.M. [4, 6]: 0.06 ± 0.05; Rantes (CCL5) Mean ± S.E.M. [4, 6]: 0.15 ± 0.05; SCF Mean ± S.E.M. [4, 6]: 0.32 ± 0.05; TNF-alpha Mean ± S.E.M. [4, 6]: 0.15 ± 0.02; VEGF Mean ± S.E.M. [4, 6]: 0.19 ± 0.05; FGF-beta [4, 7]: 0.21 ± 0.03; IFN-gamma [4, 7]: 0.23 ± 0.03; IL-1alpha [4, 7]: 0.21 ± 0.03; IL-1 beta [4, 7]: 0.42 ± 0.06; IL-5 [4, 7]: 0.22 ± 0.03; IL-6 [4, 7]: 0.28 ± 0.02; IL-10 [4, 7]: 0.103 ± 0.02; IL-15 [4, 7]: 0.14 ± 0.02; LEPTIN [4, 7]: 0.50 ± 0.09; MCP-1 [4, 7]: 0.13 ± 0.02; MIP-1 alpha [4, 7]: 0.07 ± 0.01; Rantes (CCL5) [4, 7]: 0.17 ± 0.03; SCF [4, 7]: 0.36 ± 0.06; TNF-alpha [4, 7]: 0.19 ± 0.03; VEGF [4, 7]: 0.22 ± 0.03; concentration of MIP-1α ([4]; GWI rats, decreases not significant statistically): reduced the concentration of MIP-1α; concentration of 16 cytokines between groups ([4]; naive, GWI + VEH and GWI rats receiving different doses): no significant differences; FGF-beta Mean ± S.E.M. [4, 8]: 0.18 ± 0.03; IFN-gamma Mean ± S.E.M. [4, 8]: 0.28 ± 0.03; IL-1alpha Mean ± S.E.M. [4, 8]: 0.17 ± 0.01; IL-1 beta Mean ± S.E.M. [4, 8]: 0.39 ± 0.06; IL-5 Mean ± S.E.M. [4, 8]: 0.19 ± 0.04; IL-6 Mean ± S.E.M. [4, 8]: 0.24 ± 0.03; IL-10 Mean ± S.E.M. [4, 8]: 0.086 ± 0.01; IL-15 Mean ± S.E.M. [4, 8]: 0.11 ± 0.02; LEPTIN Mean ± S.E.M. [4, 8]: 0.43 ± 0.11; MCP-1 Mean ± S.E.M. [4, 8]: 0.10 ± 0.02; MIP-1 alpha Mean ± S.E.M. [4, 8]: 0.08 ± 0.02; Rantes (CCL5) Mean ± S.E.M. [4, 8]: 0.18 ± 0.02; SCF Mean ± S.E.M. [4, 8]: 0.32 ± 0.07; TNF-alpha Mean ± S.E.M. [4, 8]: 0.18 ± 0.02; VEGF Mean ± S.E.M. [4, 8]: 0.21 ± 0.03; MDA concentration (GWI rats [5]; 40 mg/kg, p<0.05): higher concentration of MDA than naive control rats; MDA concentration (GWI rats [5]; 160 mg/kg): reduced MDA concentration than GWI rats receiving VEH
